# Experimental data as given in patent publication US12569453B2, “Use of tapinarof for the treatment of atopic dermatitis” (Dermavant Sciences GmbH, priority 2018, dated 2026).
# Marks after values point to notes of the source that are not given here.
# System: adult subjects with psoriasis
# Assay: Phase II/2b clinical study in plaque psoriasis: efficacy and patient-reported outcomes
# Assay type: in vivo, human
# Settings: for PGA response rate (primary endpoint): interim analysis; for subjects with ≥4 improvement in pruritus NRS score from baseline: baseline NRS score ≥4; for PGA response rate (PGA 0 or 1 and ≥2-grade improvement): mITT OC; for PASI50 response rate / PASI75 response rate / PASI90 response rate: Week 16; for PGA treatment success: Week 16 (4 weeks after end of treatment)
# Description: This was a multicenter (United States, Canada, and Japan), randomized, double-blind (Sponsor-unblind), vehicle-controlled, 6-arm, parallel-group, dose-finding study in adult subjects with psoriasis. Certain study personnel at each site were unblinded to dose-frequency.
# The study consisted of 3 periods: up to 4 weeks Screening, 12 weeks double-blind treatment, and 4 weeks post-treatment follow-up. Study visits occurred at Screening; Baseline; weeks 1, 2, 4, 8, and 12 during the treatment period; and 2 and 4 weeks after the last application of study treatment (i.e., at weeks 14 and 16). Additional visits could occur, as needed, for early withdrawals or to follow-up on any skin reactions or ongoing AEs. A subject's total duration of study participation was approximately 16 to 20 weeks.
# Two concentrations of Tapinarof cream (0.5% and 1%) and a vehicle control were evaluated following application to all psoriasis lesions (except on the scalp) once (QD) or twice daily (BID) for 12 weeks. There were no planned dose adjustments during the study.
# Efficacy was assessed by using a 5-point static Physician Global Assessment (PGA) (0-4 scale), the Psoriasis Area and Severity Index (PASI), % BSA involvement, target lesion assessments (erythema, scaling, and plaque thickness), and subject-reported itch/pruritus severity using a numeric rating scale (NRS) (from the Psoriasis Symptom Diary [PSD]). Additional subject-reported outcomes included the daily PSD (which also contained severity and bother items for 3 additional symptoms). Investigator global impression of change item (assessing change in severity of psoriasis symptoms) and 2 subject global impressions of change items (assessing change in severity of psoriasis symptoms and change in severity of itch/pruritus) were also assessed.
# Physician Global Assessment: The PGA is a clinical tool for assessing the current state/severity of a subject's psoriasis. It is a static 5-point morphological assessment of overall disease severity, as determined by the investigator, using the clinical characteristics of erythema, plaque thickness, and scaling as guidelines. At each specified time point, the PGA is made without reference to previous scores. Variations of the PGA are frequently used in clinical studies because it is a simple assessment that is more similar to the assessments actually used in clinical practice. Scoring system ranges from 0 (=Clear) to 4 (=Severe).
# Psoriasis Area and Severity Index: The PASI scoring system is a widely-used standard clinical tool for assessing the severity of psoriasis that takes into account the overall severity of erythema (redness), thickness (induration), and scale, as well as the extent of BSA affected with psoriasis. The 3 clinical signs are each graded on a 5 point scale (0 to 4) and the % BSA affected is scored on a 7-point scale (0 to 6) for each of the 4 specified body regions (head, upper extremities, trunk, and lower extremities). The individual scores are multiplied by a weighted factor for each body region; the sum of these scores gives the overall PASI score. Higher scores indicate more severe disease. PASI is a static assessment made without reference to previous scores.
# Body Surface Area: The extent of BSA affected by psoriasis is a general indicator of disease severity and was measured throughout the study. The extent of BSA to which study treatment was applied was also recorded. For the purpose of approximate clinical estimation, the total palmar surface of the palm plus 5 digits was assumed to be approximately equivalent to 1% BSA.
# Target Lesion Grading: A single target lesion was selected at Baseline to assess efficacy in treating a discrete area rather than an overall average of all areas. For that lesion, the severity of erythema, scaling, and plaque thickness was assessed by the investigator on a 5-point scale ranging from “0=none” to “4=severe”. […]
compound,measurement,setting,value
"CC(C)c1c(O)cc(/C=C/c2ccccc2)cc1O [Tapinarof, 3,5-Dihydroxy-4-isopropyl-trans-stilbene]","Target lesion Erythema, percent change from Baseline (Mean)","1% BID, Early WD",−46.67%
same,"Target lesion Plaque thickness, percent change from Baseline (Mean)","1% BID, Early WD",−46.67%
same,"Target lesion Scaling, percent change from Baseline (Mean)","1% BID, Early WD",−52.50%
same,PGA response at Week 12,"1% BID, Fitzpatrick skin type I/II",60%
same,PGA response at Week 12,"1% BID, Fitzpatrick skin type III/IV",54%
same,PGA response at Week 12,"1% BID, Fitzpatrick skin type V/VI",100%
same,"Target lesion Erythema, percent change from Baseline (Mean)","1% BID, Follow-up Week 14",−65.42%
same,"Target lesion Plaque thickness, percent change from Baseline (Mean)","1% BID, Follow-up Week 14",−67.50%
same,"Target lesion Scaling, percent change from Baseline (Mean)","1% BID, Follow-up Week 14",−67.50%
same,"Target lesion Erythema, percent change from Baseline (Mean)","1% BID, Follow-up/Week 16",−78.33%
same,"Target lesion Plaque thickness, percent change from Baseline (Mean)","1% BID, Follow-up/Week 16",−76.67%
same,"Target lesion Scaling, percent change from Baseline (Mean)","1% BID, Follow-up/Week 16",−77.50%
same,"Target lesion Erythema, percent change from Baseline (Mean)","1% BID, Week 1",−12.50%
same,"Target lesion Plaque thickness, percent change from Baseline (Mean)","1% BID, Week 1",−18.75%
same,"Target lesion Scaling, percent change from Baseline (Mean)","1% BID, Week 1",−25.00%
same,"Target lesion Erythema, percent change from Baseline (Mean)","1% BID, Week 2",−25.52%
same,"Target lesion Plaque thickness, percent change from Baseline (Mean)","1% BID, Week 2",−33.33%
same,"Target lesion Scaling, percent change from Baseline (Mean)","1% BID, Week 2",−32.55%
same,"Target lesion Erythema, percent change from Baseline (Mean)","1% BID, Week 4",−44.94%
same,"Target lesion Plaque thickness, percent change from Baseline (Mean)","1% BID, Week 4",−48.51%
same,"Target lesion Scaling, percent change from Baseline (Mean)","1% BID, Week 4",−55.65%
same,"Target lesion Erythema, percent change from Baseline (Mean)","1% BID, Week 8",−62.50%
same,"Target lesion Plaque thickness, percent change from Baseline (Mean)","1% BID, Week 8",−62.82%
same,"Target lesion Scaling, percent change from Baseline (Mean)","1% BID, Week 8",−70.51%
same,PGA response rate (primary endpoint),"1% BID, Week 8",42%
same,Mean change in nine items of the PSD from baseline,"1% BID, Week 12",−4.5^‡
same,Mean change in total target lesion grading scores from baseline,"1% BID, Week 12",−6.9*
same,"Target lesion Erythema, percent change from Baseline (Mean)","1% BID, Week 12",−77.65%
same,"Target lesion Plaque thickness, percent change from Baseline (Mean)","1% BID, Week 12",−81.82%
same,"Target lesion Scaling, percent change from Baseline (Mean)","1% BID, Week 12",−78.79%
same,absolute mean change in percent BSA affected from baseline,"1% BID, Week 12",4.9
same,decrease in total target lesion grading scores (mean change),"1% BID, Week 12",6.9
same,subjects with ≥4 improvement in pruritus NRS score from baseline,"1% BID, Week 12",55%
same,PGA response rate (PGA 0 or 1 and ≥2-grade improvement),"1% BID, Week 12",65%
same,PASI50 response rate,1% BID,83%
same,PASI75 response rate,1% BID,63%
same,PASI90 response rate,1% BID,38%
same,PGA treatment success,1% BID,58%
same,subjects with severity of pruritus symptoms rated very/moderately improved,"1% BID, baseline to Week 12",70%
same,PGA response at Week 12,"1% BID, psoriasis duration 5 years to <10 years",67%
same,PGA response at Week 12,"1% BID, psoriasis duration 6 months to <5 years",50%
same,PGA response at Week 12,"1% BID, psoriasis duration ≥10 years",73%
same,PGA response at Week 12,"1% BID, ≥10% BSA affected at baseline",64%
same,PASI75 responders who maintained response from Week 12 to Week 16,1% QD,93%
same,PGA responders who maintained response from Week 12 to Week 16,1% QD,86%
same,"difference in PGA response rate, active minus vehicle","1% QD-vehicle QD, Week 12",51.0%
same,PGA response at Week 12,"1% QD, 1 to <10% BSA affected at baseline",60%
same,"Target lesion Erythema, percent change from Baseline (Mean)","1% QD, Early WD",−47.62%
same,"Target lesion Plaque thickness, percent change from Baseline (Mean)","1% QD, Early WD",−60.71%
same,"Target lesion Scaling, percent change from Baseline (Mean)","1% QD, Early WD",−57.14%
same,PGA response at Week 12,"1% QD, Fitzpatrick skin type I/II",67%
same,PGA response at Week 12,"1% QD, Fitzpatrick skin type III/IV",47%
same,PGA response at Week 12,"1% QD, Fitzpatrick skin type V/VI",75%
same,"Target lesion Erythema, percent change from Baseline (Mean)","1% QD, Follow-up Week 14",−70.65%
same,"Target lesion Plaque thickness, percent change from Baseline (Mean)","1% QD, Follow-up Week 14",−70.29%
same,"Target lesion Scaling, percent change from Baseline (Mean)","1% QD, Follow-up Week 14",−67.39%
same,"Target lesion Erythema, percent change from Baseline (Mean)","1% QD, Follow-up/Week 16",−74.24%
same,"Target lesion Plaque thickness, percent change from Baseline (Mean)","1% QD, Follow-up/Week 16",−65.91%
same,"Target lesion Scaling, percent change from Baseline (Mean)","1% QD, Follow-up/Week 16",−71.59%
same,"Target lesion Erythema, percent change from Baseline (Mean)","1% QD, Week 1",−17.14%
same,"Target lesion Plaque thickness, percent change from Baseline (Mean)","1% QD, Week 1",−13.10%
same,"Target lesion Scaling, percent change from Baseline (Mean)","1% QD, Week 1",−24.29%
same,"Target lesion Erythema, percent change from Baseline (Mean)","1% QD, Week 2",−35.68%
same,"Target lesion Plaque thickness, percent change from Baseline (Mean)","1% QD, Week 2",−30.47%
same,"Target lesion Scaling, percent change from Baseline (Mean)","1% QD, Week 2",−32.81%
same,"Target lesion Erythema, percent change from Baseline (Mean)","1% QD, Week 4",−51.88%
same,"Target lesion Plaque thickness, percent change from Baseline (Mean)","1% QD, Week 4",−47.04%
same,"Target lesion Scaling, percent change from Baseline (Mean)","1% QD, Week 4",−53.49%
same,"Target lesion Erythema, percent change from Baseline (Mean)","1% QD, Week 8",−65.06%
same,"Target lesion Plaque thickness, percent change from Baseline (Mean)","1% QD, Week 8",−60.90%
same,"Target lesion Scaling, percent change from Baseline (Mean)","1% QD, Week 8",−71.79%
same,PGA response rate (primary endpoint),"1% QD, Week 8",32%
same,Mean change in nine items of the PSD from baseline,"1% QD, Week 12",−4.0^†
same,Mean change in total target lesion grading scores from baseline,"1% QD, Week 12",−7.0*
same,"Target lesion Erythema, percent change from Baseline (Mean)","1% QD, Week 12",−81.88%
same,"Target lesion Plaque thickness, percent change from Baseline (Mean)","1% QD, Week 12",−70.29%
same,"Target lesion Scaling, percent change from Baseline (Mean)","1% QD, Week 12",−83.33%
same,absolute mean change in percent BSA affected from baseline,"1% QD, Week 12",4.3
same,decrease in total target lesion grading scores (mean change),"1% QD, Week 12",7.0
same,subjects with ≥4 improvement in pruritus NRS score from baseline,"1% QD, Week 12",73%
same,PGA response rate (PGA 0 or 1 and ≥2-grade improvement),"1% QD, Week 12",56%
same,PASI50 response rate,1% QD,77%
same,PASI75 response rate,1% QD,58%
same,PASI90 response rate,1% QD,42%
same,PGA treatment success,1% QD,54%
same,PGA response at Week 12,"1% QD, psoriasis duration 5 years to <10 years",50%
same,PGA response at Week 12,"1% QD, psoriasis duration 6 months to <5 years",80%
same,PGA response at Week 12,"1% QD, psoriasis duration ≥10 years",50%
same,PGA response at Week 12,"1% QD, ≥10% BSA affected at baseline",40%
same,subjects rating itch symptoms very improved or moderately improved,"1% and 0.5% concentration groups, Week 12",70-77%
same,subjects rated by investigators as very improved or moderately improved,"1% concentration groups, Week 12",> 80%
same,subjects rating pruritus symptoms very improved or moderately improved,"1% groups, Week 12",70-76%
